Experimental data: patent US20210010031A1, “LENTIVIRAL VECTORS FOR HIGH-TITER TRANSDUCTION OF PRIMARY HUMAN CELLS” (priority 2018, published 2021)

Experiments:
HA-tagged FAM208A = HA-tagged FAM208A (Homo sapiens, UniProt Q9UK61); assay: Co-immunoprecipitation of HA-FAM208A with FLAG-Vpx in HEK293 cells; format: binding; details: versus untreated cells with wild-type SIVMAC251 Vpx (FIG. 17H)
Excerpt: Degradation of SAMHD1 requires direct interaction with Vpx or Vpr. To determine if Vpx similarly associates with proteins of the HUSH complex, HA-tagged FAM208A was co-transfected into HEK293 cells with FLAG-tagged SIVMAC251 Vpx or SIVRCM02CM8081 Vpx. When anti-FLAG antibody was used to immunoprecipitate either of the two Vpx proteins from the soluble cell lysate, HA-FAM208A was detected in the immunoprecipitate (FIG. 17H). The strength of the FAM208A signal in the Vpx pull-out increased when the co-transfected HEK293 cells were incubated with the proteasome inhibitor PR171, or when wild-type SIVMAC251 Vpx was replaced in the transfection by a mutant (Q76A) that is incapable of binding DCAF1 (FIG. 17H and FIGS. 21D and 21E).
Cells were washed in PBS, counted, normalized for cell number, and lysed directly in 1×SDS-PAGE sample buffer. Samples were run on NuPage 4-12% Bis-Tris gels followed by blotting onto nitrocellulose membranes. Primary antibodies used: FAM208A (Atlas, HPA00875), MPHOSPH8 (Proteintech, 16796-1-AP), PPHLN1 (Sigma, HPA038902), SETDB1 (Proteintech 11231-1-AP), DCAF1 (Proteintech, 11612-1-AP), FLAG (Novus, NB600-345), FLAG (Sigma, F1804, used for IP), and HA (Biolegend, 901501).

Jurkat LTR-gfp cells = assay: HIV-1 LTR-gfp provirus pool in Jurkat T cells; format: cell-based, human; details: four weeks after transduction with LTR-GFP (FIG. 22B)
Excerpt: J-Lat A1 was selected to have a silent HIV-1 LTR-driven provirus with the ability to reactivate in response to TNFα^31. The unique provirus within a clone such as J-Lat A1 may be sensitive to position-dependent silencing effects and therefore may not accurately reflect the sensitivity of a population of HIV-1 proviruses to transcriptional activation by Vpx or to silencing by FAM208A. To address the effect of Vpx and FAM208A on a population of proviruses with diverse integration sites, Jurkat T cells were transduced with an HIV-1 LTR driven reporter vector (LTR-gfp) that retains complete LTRs, tat, and rev, but has a frameshift mutation in env, an ngfr reporter gene in place of nef, and gfp in place of gag, pol, vif, and vpr (FIG. 18D). Four weeks after transduction with LTR-GFP, the presence of latent proviruses within the pool of Jurkat cells was confirmed by reactivation with either TNFα or TCR-stimulation (FIG. 22B). […] Compared with control cells, vpx or FAM208A knockdown increased the percentage of GFP cells, whether cells were treated with TNFα or not (FIGS. 18E and 18F). […] Additionally, expression vectors for SIVMND25440 Vpx, SIVRCM02CM8081 Vpx, SIVMND1GB1 Vpr, or […]1 Vpr all increased GFP expression in Jurkat LTR-gfp cells (FIG. 22C). […]
Cells were fixed in BD Cytofix Buffer prior to data acquisition on a BD C6 Accuri. Data was analyzed in FlowJo.

Sequence of HA-tagged FAM208A (Q9UK61 whole entry): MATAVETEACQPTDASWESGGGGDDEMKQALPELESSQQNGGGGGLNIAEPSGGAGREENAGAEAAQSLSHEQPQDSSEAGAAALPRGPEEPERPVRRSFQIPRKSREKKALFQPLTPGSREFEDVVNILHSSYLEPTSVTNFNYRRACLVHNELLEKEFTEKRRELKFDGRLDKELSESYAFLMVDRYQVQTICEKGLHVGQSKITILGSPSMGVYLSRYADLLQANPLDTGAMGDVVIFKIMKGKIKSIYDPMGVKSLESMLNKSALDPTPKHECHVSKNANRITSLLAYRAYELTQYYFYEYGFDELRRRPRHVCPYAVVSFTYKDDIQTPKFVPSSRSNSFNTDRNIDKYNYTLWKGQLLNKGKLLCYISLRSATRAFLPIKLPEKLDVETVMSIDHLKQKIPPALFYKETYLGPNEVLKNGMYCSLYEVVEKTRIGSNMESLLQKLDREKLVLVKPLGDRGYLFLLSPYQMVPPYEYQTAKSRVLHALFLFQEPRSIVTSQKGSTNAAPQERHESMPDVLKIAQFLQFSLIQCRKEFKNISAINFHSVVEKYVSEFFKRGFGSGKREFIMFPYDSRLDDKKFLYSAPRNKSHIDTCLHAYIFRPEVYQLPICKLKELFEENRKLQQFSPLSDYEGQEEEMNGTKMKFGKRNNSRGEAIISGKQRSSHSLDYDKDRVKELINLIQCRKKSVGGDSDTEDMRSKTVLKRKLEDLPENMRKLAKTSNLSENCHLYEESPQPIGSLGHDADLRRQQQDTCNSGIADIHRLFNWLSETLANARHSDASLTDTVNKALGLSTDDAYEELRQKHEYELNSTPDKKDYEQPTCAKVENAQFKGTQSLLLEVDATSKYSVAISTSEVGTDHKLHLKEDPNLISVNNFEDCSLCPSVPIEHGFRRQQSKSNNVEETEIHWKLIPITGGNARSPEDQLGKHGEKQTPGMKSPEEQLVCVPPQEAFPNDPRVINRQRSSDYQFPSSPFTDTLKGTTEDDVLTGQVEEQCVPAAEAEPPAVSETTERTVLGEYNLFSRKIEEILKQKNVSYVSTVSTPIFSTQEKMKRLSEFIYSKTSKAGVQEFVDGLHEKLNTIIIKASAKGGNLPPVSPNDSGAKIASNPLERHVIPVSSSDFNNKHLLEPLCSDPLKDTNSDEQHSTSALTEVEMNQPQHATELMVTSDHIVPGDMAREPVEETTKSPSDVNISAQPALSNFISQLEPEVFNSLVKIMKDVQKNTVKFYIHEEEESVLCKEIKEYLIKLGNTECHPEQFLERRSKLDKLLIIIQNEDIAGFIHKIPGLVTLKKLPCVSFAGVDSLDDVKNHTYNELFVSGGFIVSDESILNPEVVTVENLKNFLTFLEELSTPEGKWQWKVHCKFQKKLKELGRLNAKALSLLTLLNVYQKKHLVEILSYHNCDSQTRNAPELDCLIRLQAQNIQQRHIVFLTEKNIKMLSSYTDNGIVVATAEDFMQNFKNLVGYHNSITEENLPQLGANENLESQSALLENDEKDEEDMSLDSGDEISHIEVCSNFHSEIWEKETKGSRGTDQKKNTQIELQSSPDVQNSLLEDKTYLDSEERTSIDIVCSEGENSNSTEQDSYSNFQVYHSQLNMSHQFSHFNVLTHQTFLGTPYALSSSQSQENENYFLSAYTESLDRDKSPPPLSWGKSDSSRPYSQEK

Compound	strength of the FAM208A signal in the Vpx pull-out (HA-tagged FAM208A)	reactivation of latent proviruses (Jurkat LTR-gfp cells)
CC(C)C[C@H](NC(=O)[C@H](CCc1ccccc1)NC(=O)CN1CCOCC1)C(=O)N[C@@H](Cc1ccccc1)C(=O)N[C@@H](CC(C)C)C(=O)[C@@]1(C)CO1 [PR171]	increased	–
TNFα	–	reactivation
